In experiment [1] the test system is MCF-7 cells. The experiment in a line: SRB assay (total protein content), MCF-7. The settings on record: Homo sapiens, MCF7, 48 h incubation. The format is cell-based. The protocol: (§1) The anticancer activity of tested compounds was assessed on five human cell lines selected from the panel of tumor cell lines recommended by the National Cancer Institute: A495 (lung carcinoma), CCRF/CEM (acute lymphoblastic leukemia), LoVo and LoVo/DX (two types of colorectal: non-resistant and resistant to doxorubicin), and MCF-7 (breast adenocarcinoma). In addition, the NHDF cell line (normal human dermal fibroblasts) was used to estimate cytotoxicity to noncancer cells. The A549, CCRF/CEM, LoVo, LoVo/DX, and MCF-7 cells were obtained from ECACC, and NHDF cells from LONZA, Belgium. The A549 and MCF-7 cells were grown in EMEM medium, CCRF/CEM cells in RPMI-1640, LoVo and LoVo/DX cells in DMEM/F-12, and NHDF cells in DMEM without phenol red. The cells were seeded in […] in the biological assay, as recommended by the National Cancer Institute. All culture media were supplemented with L-glutamine, penicillin, streptomycin, and 10% fetal bovine serum (FBS). Cells were incubated at 37 °C and 5% CO2. One of the most popular in vitro tests to evaluate the activity of compounds with potential antitumor activity is the SRB assay. The sulforhodamine B dye is used, which binds to the protein at the appropriate pH. The assay allows for assessing cell mass and, indirectly, their proliferation. The advantage of the assay is that it measures cellular protein content and not the activity of any enzymes. The SRB assay was carried out according to the National Cancer Institute procedure. Cells were incubated in a culture medium for 24 h in 96-well plates. After 24 h, the control plate for each cell line was fixed with TCA to evaluate cell culture before treatment with tested compounds. […] Cell cultures were then fixed by adding 50% TCA at 4 °C for 1 h. After removing the supernatant, the plates were washed with water and dried. […] Growth inhibition was calculated following the NCI guidelines and expressed as the GI50 ratio, i.e., the concentration of the compound in which the amount of protein was reduced by half compared with the control.

Experiment [2] deals with LoVo cells. The experiment in a line: SRB assay (total protein content), LoVo. It counts as cell-based. The note with it: Homo sapiens, 48 h incubation. The protocol:
as §1
(Sulforhodamine B stains cellular protein and so reports cell mass.)

Experiment [3] deals with LoVo/DX cells. Nature of the experiment: SRB assay (total protein content), LoVo/DX. The format is cell-based. The note with it: Homo sapiens, LoVo/DX cells (doxorubicin-resistant), 48 h incubation. The protocol:
as §1

The subject of experiment [4] is CCRF/CEM cells. The experiment in a line: SRB assay (total protein content), CCRF/CEM. The format is cell-based. The settings on record: Homo sapiens, 48 h incubation. The protocol:
as §1

The test system of experiment [5] is NHDF cells. Nature of the experiment: SRB assay (total protein content), NHDF. It counts as cell-based. The note with it: Homo sapiens, NHDF normal cells, 48 h incubation. The protocol:
as §1

Experiment [6] concerns A549 cells. Nature of the experiment: MTT assay (mitochondrial activity), A549. The format is cell-based. The settings on record: Homo sapiens. The protocol: (§2) The anticancer activity of tested compounds was assessed on five human cell lines selected from the panel of tumor cell lines recommended by the National Cancer Institute: A495 (lung carcinoma), CCRF/CEM (acute lymphoblastic leukemia), LoVo and LoVo/DX (two types of colorectal: non-resistant and resistant to doxorubicin), and MCF-7 (breast adenocarcinoma). In addition, the NHDF cell line (normal human dermal fibroblasts) was used to estimate cytotoxicity to noncancer cells. The A549, CCRF/CEM, LoVo, LoVo/DX, and MCF-7 cells were obtained from ECACC, and NHDF cells from LONZA, Belgium. The A549 and MCF-7 cells were grown in EMEM medium, CCRF/CEM cells in RPMI-1640, LoVo and LoVo/DX cells in DMEM/F-12, and NHDF cells in DMEM without phenol red. The cells were seeded in […] in the biological assay, as recommended by the National Cancer Institute. All culture media were supplemented with L-glutamine, penicillin, streptomycin, and 10% fetal bovine serum (FBS). Cells were incubated at 37 °C and 5% CO2. An assessment of the mitochondrial cell activity after applying tested compounds was carried out using the test MTT assay, recommended in the ISO 10993-5:2009 standard. As in the SRB assay, the cells were exposed to tested compounds after 24 h of initial incubation in 96-well plates. The MTT solution (1 mg/mL) was added to each well, and cells were incubated for 2 h. Finally, the supernatant was removed, and the formazan crystals were dissolved in isopropanol. After 30 min, absorbance at 570 nm in Victor2 microplate reader (PerkinElmer). Cell viability was determined as the IC50 ratio, i.e., the concentration of the compound in which the viability was reduced by half compared with the control.
For orientation: Tetrazolium dyes change colour on reduction, which living cells bring about.

The subject of experiment [7] is MCF-7 cells. Nature of the experiment: MTT assay (mitochondrial activity), MCF-7. The format is cell-based. The note with it: Homo sapiens, MCF7. The protocol:
as §2

Experiment [8] has as its system LoVo cells. The experiment in a line: MTT assay (mitochondrial activity), LoVo. The format is cell-based. The settings on record: Homo sapiens. The protocol: as §2
Experiment [9] deals with LoVo/DX cells. Nature of the experiment: MTT assay (mitochondrial activity), LoVo/DX. The format is cell-based. The note with it: Homo sapiens, LoVo/DX cells (doxorubicin-resistant). The protocol: as §2
The test system of experiment [10] is CCRF/CEM cells. The experiment in a line: MTT assay (mitochondrial activity), CCRF/CEM. The format is cell-based. The settings on record: Homo sapiens. The protocol: as §2
Experiment [11] concerns NHDF cells. The experiment in a line: MTT assay (mitochondrial activity), NHDF. It counts as cell-based. The settings on record: Homo sapiens, NHDF normal cells. The protocol: as §2
Experiment [12] has as its system A549 cells. The experiment in a line: Proton pump blocking test (omeprazole) for lysosomal exocytosis. It counts as cell-based, human. The settings on record: 200 µM for 1 h before test compounds. The protocol: To assess whether the exocytosis of olivacine and ellipticine from cancer cells is lysosomal, a proton pump blocking test was performed. Omeprazole was added into A549 cells at a concentration of 200 µM for 1 h. The cell culture was then washed twice with PBS, and the cells were treated with tested compounds. The cell culture was assessed using an Evos FL microscope. The lysosomes were stained using LysoTracker™ Deep Red kit (L12492; Invitrogen). Cultured cells were evaluated using an Evos FL microscope, taking photos every 15 min. After treatment with olivacine or olivacine and omeprazole, analysis of mean cell fluorescence was performed from five independent replicates. In addition, 14 pictures were taken from each replicate, and 100 cells were analyzed by photomicrography using the ImageJ platform.

A word on the GI50: it is the concentration giving 50% growth inhibition. By IC50 is commonly meant the concentration that gives 50% inhibition. Lower therefore signals inhibition by little substance. Take `COc1cccc2c1C(=O)c1c(O)c3c(c(O)c1C2=O)C[C@@](O)(C(=O)CO)C[C@@H]3O[C@H]1C[C@H](N)[C@H](O)[C@H](C)O1` [Doxorubicin]: the GI50 with MCF-7 cells [1] came to 1.44 ± 0.23 µM; in the experiment on LoVo cells [2], 1.62 ± 0.45 µM; in the experiment on LoVo/DX cells [3], 14.1 ± 3.42 µM; in the experiment on CCRF/CEM cells [4], 0.74 ± 0.02 µM; in the experiment on NHDF cells [5] it was 13.7 ± 5.29 µM. Besides, the IC50 came to 13.8 ± 1.03 µM in the experiment with A549 cells [6]; 4.33 ± 0.55 µM in the experiment with MCF-7 cells [7]; 10.2 ± 1.27 µM in the experiment on LoVo cells [8]; 86.4 ± 25.4 µM in the experiment on LoVo/DX cells [9]; 1.03 ± 0.02 µM in the experiment with CCRF/CEM cells [10]; 18.2 ± 4.46 µM in the experiment on NHDF cells [11].
On to `COc1ccc2[nH]c([S+]([O-])Cc3ncc(C)c(OC)c3C)nc2c1` (stereo not drawn) [Omeprazole], for which the “effect on exocytosis of olivacine and ellipticine” value in the experiment with A549 cells [12] was “protect against exocytosis”.

Source of the values: publication PMC9181543, “Lysosomal Exocytosis of Olivacine on the Way to Explain Drug Resistance in Cancer Cells” (International Journal of Molecular Sciences, 2022).
